Herbicidal activity post-emergence and herbicidal activity pre-emergence data for 37 compounds are collected here from patent US20030171218A1, “Substituted 3-heteroaryl(amino- or oxy)pyrrolidin-2-ones, their preparation and use as herbicides or plant growth regulators” (priority 2001, published 2003).

Assay [1] has as its system harmful plants such as Digitaria sanguinalis, Echinochloa crus-galli, Setaria faberi, Setaria viridis, Sorghum halepense, Abutilon theophrasti, Amaranthum …. Kind of assay: Post-emergence effect on weeds (greenhouse pot test). As to conditions: application rate of 1 kg and less of active substance per hectare; treated at three-leaf stage; scored visually after about 3 to 4 weeks by comparison with untreated controls. Format: in vivo, monocotyledonous and dicotyledonous weeds. The procedure:
Seeds or rhizome pieces of monocotyledonous and dicotyledonous weeds are placed in sandy loam soil in plastic pots, covered with soil and grown in a greenhouse under good growth conditions. Three weeks after sowing, the test plants are treated at the three-leaf stage. The compounds according to the invention which were formulated as wettable powders or emulsion concentrates are sprayed, at various dosages, onto the green parts of the plants at an application rate of 600 to 800 l of water/ha (converted). After the test plants have remained in the greenhouse for about 3 to 4 weeks under optimum growth conditions, the effect of the preparations is scored visually by comparison with untreated controls. The agents according to the invention also have good herbicidal activity post-emergence against a broad spectrum of economically important weed grasses and broad-leafed weeds.

The test system of assay [2] is weed plants such as Digitaria sanguinalis, Echinochloa crus-galli, Setaria faberi, Setaria viridis, Sorghum halepense, Abutilon theophrasti, Amaranthum …. Kind of assay: Pre-emergence effect on weeds (greenhouse pot test). Format: in vivo, monocotyledonous and dicotyledonous weed plants. As to conditions: application rate of 1 kg or less of active substance per hectare; scored visually after 3 to 4 weeks by comparison with untreated controls. An excerpt:
Seeds or rhizome pieces of monocotyledonous and dicotyledonous weed plants are placed in sandy loam soil in plastic pots and covered with soil. The compounds according to the invention which are formulated in the form of wettable powders or emulsion concentrates are then applied to the surface of the soil cover in the form of aqueous suspensions or emulsions at an application rate of 600 to 800 l of water/ha (converted), in various dosages.
After the treatment, the pots are placed in a greenhouse and kept under good growth conditions for the weeds. After the test plants have emerged, the damage to the plants or the negative effect on the emergence is scored visually after a test period of 3 to 4 weeks by comparison with untreated controls. As shown by the test results, compounds according to the invention have good herbicidal pre-emergence activity against a broad spectrum of weed grasses and broad-leafed weeds.

Consider `Cc1cc(C)cc(N2CCC(Nc3nc(N)nc(C(C)(C)F)n3)C2=O)c1` (centres unmarked) [Example A34], for which, in assay [1], the herbicidal activity post-emergence result is “very good herbicidal activity”. Further, in assay [2], the herbicidal activity pre-emergence result is “very good herbicidal activity”.
As for `CC(C)c1nc(N)nc(OC2CCN(c3cccc(Cl)c3)C2=O)n1` (centres unmarked) [Example A52], in assay [1], the herbicidal activity post-emergence result is “very good herbicidal activity”. Also, in assay [2], the herbicidal activity pre-emergence result is listed as “very good herbicidal activity”.
Take `CC(C)(F)c1nc(N)nc(OC2CCN(c3cccc(Cl)c3)C2=O)n1` (centres unmarked) [Example A61]: in assay [1], the herbicidal activity post-emergence result is “very good herbicidal activity”. For the same compound, the herbicidal activity pre-emergence entry in assay [2] is reported as “very good herbicidal activity”.
Turning to `Cc1nc(N)nc(NC2CCN(c3cccc(F)c3)C2=O)n1` (centres unmarked) [Example A1], the herbicidal activity post-emergence result in assay [1] is given as “very good herbicidal activity”. For the same compound, the herbicidal activity pre-emergence entry in assay [2] was “very good herbicidal activity”.
For `CN(c1nc(N)nc(C(C)(C)F)n1)C1CCN(c2cccc(Cl)c2)C1=O` (centres unmarked) [Example A79], the herbicidal activity post-emergence entry in assay [1] is reported as “very good herbicidal activity”. For the same compound, the herbicidal activity pre-emergence result in assay [2] is listed as “very good herbicidal activity”.
Turning to `CC(F)c1nc(N)nc(N(C)C2CCN(c3cccc(OC(F)(F)F)c3)C2=O)n1` (centres unmarked) [Example A63], the herbicidal activity post-emergence result in assay [1] is given as “very good herbicidal activity”. Also, the herbicidal activity pre-emergence result in assay [2] was “very good herbicidal activity”.
Regarding `CC(C)c1nc(N)nc(NC2CCN(c3cccc(C(F)(F)F)c3)C2)n1` (centres unmarked) [Example E21], the herbicidal activity post-emergence result in assay [1] was “very good herbicidal activity”. Besides, the herbicidal activity pre-emergence entry in assay [2] is recorded as “very good herbicidal activity”.
On to `Cc1cc(C)cc(N2CCC(N(C)c3nc(N)nc(C(C)C)n3)C2=O)c1` (centres unmarked) [Example A71], for which the herbicidal activity post-emergence entry in assay [1] is listed as “very good herbicidal activity”. Also, in assay [2], the herbicidal activity pre-emergence result was “very good herbicidal activity”.
Turning to `CC(F)c1nc(N)nc(NC2CCN(c3cccc(F)c3)C2=O)n1` (centres unmarked) [Example A10], the herbicidal activity post-emergence entry in assay [1] is on record as “very good herbicidal activity”. In addition, the herbicidal activity pre-emergence entry in assay [2] was “very good herbicidal activity”.
As for `CC(F)c1nc(N)nc(OC2CCN(C(C)(C)c3cccc(Cl)c3)C2=O)n1` (centres unmarked) [Example F1], in assay [1], the herbicidal activity post-emergence result was “very good herbicidal activity”. The herbicidal activity pre-emergence entry in assay [2] is “very good herbicidal activity”.
As to `CC(F)c1nc(N)nc(NC2CCN(c3ccccc3)C2=O)n1` (centres unmarked) [Example A11], in assay [1], the herbicidal activity post-emergence entry was “very good herbicidal activity”. For the same compound, in assay [2], the herbicidal activity pre-emergence result is “very good herbicidal activity”.
Consider `CC(C)c1nc(N)nc(NC2CCN(c3cccc(F)c3)C2=O)n1` (centres unmarked) [Example A19], for which, in assay [1], the herbicidal activity post-emergence entry was “very good herbicidal activity”. Moreover, the herbicidal activity pre-emergence entry in assay [2] was “very good herbicidal activity”.
Turning to `CC(C)(F)c1nc(N)nc(NC2CCN(c3cccc(Cl)c3)C2)n1` (centres unmarked) [Example E16], in assay [1], the herbicidal activity post-emergence result is recorded as “very good herbicidal activity”. The herbicidal activity pre-emergence entry in assay [2] is on record as “very good herbicidal activity”.
For `CC(C)c1nc(N)nc(N(C)C2CCN(c3cccc(Cl)c3)C2=O)n1` (centres unmarked) [Example A72], in assay [1], the herbicidal activity post-emergence result is listed as “very good herbicidal activity”. Further, in assay [2], the herbicidal activity pre-emergence entry was “very good herbicidal activity”.
As for `CN(c1nc(N)nc(C(C)(C)F)n1)C1CCN(c2cccc(C(F)(F)F)c2)C1` (centres unmarked) [Example E48], the herbicidal activity post-emergence result in assay [1] was “very good herbicidal activity”. Moreover, in assay [2], the herbicidal activity pre-emergence result is “very good herbicidal activity”.
With `Cc1cc(C)cc(N2CCC(N(C)c3nc(N)nc(C(C)(C)F)n3)C2=O)c1` (centres unmarked) [Example A78], in assay [1], the herbicidal activity post-emergence result is given as “very good herbicidal activity”. In assay [2], the herbicidal activity pre-emergence result is recorded as “very good herbicidal activity”.
As to `Cc1cc(N2CCC(N(C)c3nc(N)nc(C(C)F)n3)C2=O)ccc1F` (centres unmarked) [Example A67], in assay [1], the herbicidal activity post-emergence entry was “very good herbicidal activity”. The herbicidal activity pre-emergence entry in assay [2] is “very good herbicidal activity”.
As to `Cc1cc(N2CCC(N(C)c3nc(N)nc(C(C)C)n3)C2=O)ccc1F` (centres unmarked) [Example A73], the herbicidal activity post-emergence entry in assay [1] was “very good herbicidal activity”. Moreover, the herbicidal activity pre-emergence result in assay [2] is listed as “very good herbicidal activity”.
With `COc1cccc(N2CCC(Nc3nc(N)nc(C(C)C)n3)C2=O)c1` (centres unmarked) [Example A25], in assay [1], the herbicidal activity post-emergence result is recorded as “very good herbicidal activity”. Further, in assay [2], the herbicidal activity pre-emergence entry was “very good herbicidal activity”.
With `CC(F)c1nc(N)nc(N(C)C2CCN(c3cccc(OC(F)(F)F)c3)C2)n1` (centres unmarked) [Example E58], the herbicidal activity post-emergence result in assay [1] is reported as “very good herbicidal activity”. Besides, the herbicidal activity pre-emergence entry in assay [2] was “very good herbicidal activity”.
As to `CC(C)c1nc(N)nc(NC2CCN(c3cccc(OC(F)(F)F)c3)C2=O)n1` (centres unmarked) [Example A26], in assay [1], the herbicidal activity post-emergence result is recorded as “very good herbicidal activity”. In assay [2], the herbicidal activity pre-emergence entry is recorded as “very good herbicidal activity”.
Turning to `Cc1cc(N2CCC(N(C)c3nc(N)nc(C(C)(C)F)n3)C2=O)ccc1F` (centres unmarked) [Example A83], in assay [1], the herbicidal activity post-emergence entry is recorded as “very good herbicidal activity”. Further, the herbicidal activity pre-emergence entry in assay [2] is given as “very good herbicidal activity”.
For the compound `Cc1cc(C)cc(N2CCC(Nc3nc(N)nc(C(C)F)n3)C2)c1` (centres unmarked) [Example E26], the herbicidal activity post-emergence result in assay [1] was “very good herbicidal activity”. For the same compound, in assay [2], the herbicidal activity pre-emergence result is recorded as “very good herbicidal activity”.
Turning to `CC(F)c1nc(N)nc(N(C)C2CCN(c3cccc(F)c3)C2=O)n1` (centres unmarked) [Example A69], the herbicidal activity post-emergence result in assay [1] is reported as “very good herbicidal activity”. The herbicidal activity pre-emergence result in assay [2] is given as “very good herbicidal activity”.
In the case of `CC(F)c1nc(N)nc(OC2CCN(c3cccc(OC(F)(F)F)c3)C2=O)n1` (centres unmarked) [Example A42], the herbicidal activity post-emergence entry in assay [1] is reported as “very good herbicidal activity”. Further, the herbicidal activity pre-emergence entry in assay [2] is listed as “very good herbicidal activity”.
Regarding `Cc1cc(C)cc(N2CCC(N(C)c3nc(N)nc(C(C)(C)F)n3)C2)c1` (centres unmarked) [Example E50], the herbicidal activity post-emergence entry in assay [1] is on record as “very good herbicidal activity”. The herbicidal activity pre-emergence entry in assay [2] is given as “very good herbicidal activity”.
As for `CC(F)c1nc(N)nc(NC2CCN(c3cccc(OC(F)(F)F)c3)C2=O)n1` (centres unmarked) [Example A17], the herbicidal activity post-emergence result in assay [1] is listed as “very good herbicidal activity”. In addition, in assay [2], the herbicidal activity pre-emergence entry is on record as “very good herbicidal activity”.
Consider `CC(F)c1nc(N)nc(NC2CCN(c3cccc(F)c3)C2)n1` (centres unmarked) [Example E14], for which the herbicidal activity post-emergence result in assay [1] is “very good herbicidal activity”. Also, the herbicidal activity pre-emergence result in assay [2] is “very good herbicidal activity”.
For `Cc1cc(C)cc(N2CCC(Nc3nc(N)nc(C(C)C)n3)C2=O)c1` (centres unmarked) [Example A23], the herbicidal activity post-emergence result in assay [1] is listed as “very good herbicidal activity”. Also, in assay [2], the herbicidal activity pre-emergence entry was “very good herbicidal activity”.
Consider `CC(C)(F)c1nc(N)nc(OC2CCN(c3cccc(OC(F)(F)F)c3)C2=O)n1` (centres unmarked) [Example A60], for which the herbicidal activity post-emergence entry in assay [1] is reported as “very good herbicidal activity”. In addition, the herbicidal activity pre-emergence entry in assay [2] is “very good herbicidal activity”.
`Cc1cc(C)cc(N2CCC(N(C)c3nc(N)nc(C(C)F)n3)C2=O)c1` (centres unmarked) [Example A65]: the herbicidal activity post-emergence entry in assay [1] is listed as “very good herbicidal activity”. Further, the herbicidal activity pre-emergence result in assay [2] is “very good herbicidal activity”.
Regarding `CC(C)c1nc(N)nc(N(C)C2CCN(c3cccc(Cl)c3)C2)n1` (centres unmarked) [Example E73], in assay [1], the herbicidal activity post-emergence entry was “very good herbicidal activity”. The herbicidal activity pre-emergence entry in assay [2] was “very good herbicidal activity”.
Take `CC(C)c1nc(N)nc(N(C)C2CCN(c3cccc(F)c3)C2=O)n1` (centres unmarked) [Example A76]: the herbicidal activity post-emergence result in assay [1] is reported as “very good herbicidal activity”. For the same compound, in assay [2], the herbicidal activity pre-emergence entry was “very good herbicidal activity”.
On to `Cc1cc(C)cc(N2CCC(Nc3nc(C)nc(N)n3)C2=O)c1` (centres unmarked) [Example A5], for which the herbicidal activity post-emergence entry in assay [1] was “very good herbicidal activity”. In assay [2], the herbicidal activity pre-emergence entry was “very good herbicidal activity”.
In the case of `Cc1cc(N2CCC(Oc3nc(N)nc(C(C)C)n3)C2=O)ccc1F` (centres unmarked) [Example A49], the herbicidal activity post-emergence entry in assay [1] was “very good herbicidal activity”. The herbicidal activity pre-emergence result in assay [2] is “very good herbicidal activity”.
For `Cc1cccc(N2CCC(Nc3nc(N)nc(C(C)F)n3)C2)c1` (centres unmarked) [Example E8], the herbicidal activity post-emergence entry in assay [1] is given as “very good herbicidal activity”. In addition, the herbicidal activity pre-emergence entry in assay [2] is given as “very good herbicidal activity”.
`CC(F)c1nc(N)nc(NC2CCN(c3cccc(Cl)c3)C2)n1` (centres unmarked) [Example E17]: in assay [1], the herbicidal activity post-emergence result is “very good herbicidal activity”. The herbicidal activity pre-emergence result in assay [2] was “very good herbicidal activity”.
